The results in this text go back to patent US10815213B2, “Bruton's tyrosine kinase inhibitors” (Pfizer Inc., priority 2013, dated 2020).

The target in experiment [1] is human full-length BTK Kinase (Homo sapiens (Human), UniProt Q06187). Put plainly: Human BTK LanthaScreen Assay (TR-FRET). The format is biochemical. Conditions: 50 μM ATP, 70 pM BTK, 100 nM FAM-Srctide; run with and without 60 minutes pre-incubation (table does not say which); read-out: BTK Inhibition IC50. (In general: TR-FRET usually uses a lanthanide donor and a delayed reading to cut background.)

For the next experiment, the target named is human EGFR kinase domain (Homo sapiens (Human), UniProt P00533). Put plainly: Human EGFR LanthaScreen Selectivity Assay (TR-FRET). The format is biochemical. Conditions: 20 μM ATP, 600 pM EGFR kinase domain; run with and without 60 minutes pre-incubation.
The next experiment relates to Human B cells. The experiment is described as follows: Human Primary B Cell Proliferation Assay. Conditions: 50 μg/mL anti-human IgM F(ab')2 for 72 hours, 3H-thymidine incorporation. The format is cell-based. As to the method:
Human B cells were purified from buffy coats using the human B cell RosetteSep kit per manufacturer's instructions. Purified cells were resuspended in RPMI-10% HIFCS, 2 mM L-glutamine, 100 U/mL penicillin, 100 μg/ml streptomycin, incubated with compounds for 1 hour at 37° C. and then stimulated with 50 μg/mL anti-human IgM F(ab′)2 for 72 hours. ^3H-thymidine was included in the culture media for the final 8-16 hours. Cells were harvested and ^3H-thymidine incorporation was measured.
(Incorporation of labelled thymidine or its analogues reports DNA synthesis.)

human EGFR kinase domain, sequence (P00533 712-979): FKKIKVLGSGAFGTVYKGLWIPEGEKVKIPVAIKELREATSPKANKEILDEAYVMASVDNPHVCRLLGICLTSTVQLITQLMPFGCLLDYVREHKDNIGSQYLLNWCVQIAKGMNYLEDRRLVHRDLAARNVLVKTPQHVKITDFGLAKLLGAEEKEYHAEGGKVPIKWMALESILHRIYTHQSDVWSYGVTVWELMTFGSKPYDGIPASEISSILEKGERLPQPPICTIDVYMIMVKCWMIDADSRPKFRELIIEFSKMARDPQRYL
human full-length BTK Kinase, sequence (Q06187 whole entry): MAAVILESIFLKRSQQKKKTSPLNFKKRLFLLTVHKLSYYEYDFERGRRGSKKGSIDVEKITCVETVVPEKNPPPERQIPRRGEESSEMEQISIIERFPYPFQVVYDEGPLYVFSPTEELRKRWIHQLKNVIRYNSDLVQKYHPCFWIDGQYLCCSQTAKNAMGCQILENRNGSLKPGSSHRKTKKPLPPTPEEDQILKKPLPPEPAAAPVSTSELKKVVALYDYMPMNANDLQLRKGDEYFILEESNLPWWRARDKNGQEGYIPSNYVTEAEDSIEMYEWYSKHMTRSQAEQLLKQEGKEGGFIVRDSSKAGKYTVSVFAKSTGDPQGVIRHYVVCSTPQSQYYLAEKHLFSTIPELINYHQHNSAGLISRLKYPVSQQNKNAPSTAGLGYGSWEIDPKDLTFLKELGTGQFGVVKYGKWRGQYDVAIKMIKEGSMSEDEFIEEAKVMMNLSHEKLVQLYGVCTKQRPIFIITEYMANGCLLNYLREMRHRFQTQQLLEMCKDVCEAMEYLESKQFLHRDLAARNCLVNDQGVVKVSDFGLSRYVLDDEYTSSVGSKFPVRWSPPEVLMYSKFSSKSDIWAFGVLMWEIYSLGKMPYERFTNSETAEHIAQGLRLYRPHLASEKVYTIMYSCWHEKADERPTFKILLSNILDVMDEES
Description for human EGFR kinase domain: The kinase reaction mixtures were incubated at room temperature for 60 minutes before stopping the kinase activity by the addition of 15 mM EDTA. The extent of peptide phosphorylation by EGFR was detected using a Terbium-conjugated anti-phospho-Tyrosine antibody (Tb-PT66 antibody, Invitrogen # PV3557).

Consider `NC(=O)c1c(-c2ccc(Oc3ccc(Cl)cc3)cc2)nn([C@@H]2CCCN(C(=O)/C=C/CO)C2)c1N` [Example 131, 5-amino-3-[4-(4-chlorophenoxy)phenyl]-1-{(3R)-1-[(2E)-4-hydroxybut-2-enoyl]piperidin-3-yl}-1H-pyrazole-4-carboxamide], for which the half-inhibitory concentration (IC50) (usually the concentration needed to halve the response being measured) in experiment [1] stood at 0.0023 µM; against human EGFR kinase domain it was 2.2 µM. Regarding `NC(=O)c1c(-c2ccc(Oc3ccc(Cl)cc3)cc2)nn([C@@H]2CCCN(C(=O)/C=C/CF)C2)c1N` [Example 132, 5-amino-3-[4-(4-chlorophenoxy)phenyl]-1-{(3R)-1-[(2E)-4-fluorobut-2-enoyl]piperidin-3-yl}-1H-pyrazole-4-carboxamide], the half-maximal inhibitory concentration (IC50) in experiment [1] stood at 0.0011 µM. On to `NC(=O)c1c(-c2ccc(Oc3ccc(F)cc3F)cc2)nn([C@@H]2CCCN(C(=O)/C=C/CF)C2)c1N` [Example 145, 5-amino-3-[4-(2,4-difluorophenoxy)phenyl]-1-{(3R)-1-[(2E)-4-fluorobut-2-enoyl]piperidin-3-yl}-1H-pyrazole-4-carboxamide], for which the IC50 was found to be 0.0028 µM in experiment [1] and 2.18 µM against human EGFR kinase domain. Turning to `NC(=O)c1c(-c2ccc(Oc3ccc(F)cc3F)cc2)nn([C@@H]2CCCN(C(=O)/C(F)=C/CO)C2)c1N` [Example 146, 5-amino-3-[4-(2,4-difluorophenoxy)phenyl]-1-{(3R)-1-[(2Z)-2-fluoro-4-hydroxybut-2-enoyl]piperidin-3-yl}-1H-pyrazole-4-carboxamide], the IC50 in experiment [1] came out at 0.048 µM. On the same count and under the same terms, next, `CC(C)(O)/C=C/C(=O)N1CCC[C@@H](n2nc(-c3ccc(Oc4ccc(F)cc4F)cc3)c(C(N)=O)c2N)C1` [Example 147, 5-amino-3-[4-(2,4-difluorophenoxy)phenyl]-1-{(3R)-1-[(2E)-4-hydroxy-4-methylpent-2-enoyl]piperidin-3-yl}-1H-pyrazole-4-carboxamide]: 0.241 µM; `C[C@H](O)/C=C/C(=O)N1CCC[C@@H](n2nc(-c3ccc(Oc4ccc(F)cc4F)cc3)c(C(N)=O)c2N)C1` [Example 148, 5-amino-3-[4-(2,4-difluorophenoxy)phenyl]-1-{(3R)-1-[(2E,4S)-4-hydroxypent-2-enoyl]piperidin-3-yl}-1H-pyrazole-4-carboxamide]: 0.039 µM; `C[C@@H](O)/C=C/C(=O)N1CCC[C@@H](n2nc(-c3ccc(Oc4ccc(F)cc4F)cc3)c(C(N)=O)c2N)C1` [Example 149, 5-amino-3-(4-(2,4-difluorophenoxy)phenyl)-1-((R)-1-((R,E)-4-hydroxypent-2-enoyl)piperidin-3-yl)-1H-pyrazole-4-carboxamide]: 0.052 µM.

In the case of `NC(=O)c1c(-c2ccc(Oc3ccc(F)cc3F)cc2)nn([C@@H]2CCCN(C(=O)/C=C/CO)C2)c1N` [Example 151, 5-amino-3-[4-(2,4-difluorophenoxy)phenyl]-1-{(3R)-1-[(2E)-4-hydroxybut-2-enoyl]-piperidin-3-yl}-1H-pyrazole-4-carboxamide], the IC50 is 0.0023 µM in experiment [1] and 12.1 µM against human EGFR kinase domain. As to `N#C/C=C/C(=O)N1CCC[C@@H](n2nc(-c3ccc(Oc4ccc(F)cc4F)cc3)c(C(N)=O)c2N)C1` [Example 152, 5-amino-1-{(3R)-1-[(2E)-3-cyanoprop-2-enoyl]piperidin-3-yl}-3-[4-(2,4-difluorophenoxy)phenyl]-1H-pyrazole-4-carboxamide], the IC50 in experiment [1] was determined as 0.0015 µM.

With `NC(=O)c1c(-c2ccc(Oc3ncc(Cl)cc3F)cc2)nn([C@@H]2CCCN(C(=O)/C=C/CO)C2)c1N` [Example 154, 5-amino-3-{4-[(5-chloro-3-fluoropyridin-2-yl)oxy]phenyl}-1-{(3R)-1-[(2E)-4-hydroxybut-2-enoyl]piperidin-3-yl}-1H-pyrazole-4-carboxamide], the half-inhibitory concentration (IC50) in experiment [1] worked out at 0.049 µM. In the case of `NC(=O)c1c(-c2ccc(Oc3ncc(Cl)cc3F)cc2)nn([C@@H]2CCCN(C(=O)/C=C/C(F)F)C2)c1N` [Example 155, 5-amino-3-{4-[(5-chloro-3-fluoropyridin-2-yl)oxy]phenyl}-1-{(3R)-1-[(2E)-4,4-difluorobut-2-enoyl]piperidin-3-yl}-1H-pyrazole-4-carboxamide], the IC50 in experiment [1] amounted to 0.0007 µM; in the experiment on Human B cells, 0.002 µM; at human EGFR kinase domain it was 0.106 µM. Turning to `NC(=O)c1c(-c2ccc(Oc3ncc(Cl)cc3F)cc2)nn([C@@H]2CCCN(C(=O)/C=C/CF)C2)c1N` [Example 156, 5-amino-3-{4-[(5-chloro-3-fluoropyridin-2-yl)oxy]phenyl}-1-{(3R)-1-[(2E)-4-fluorobut-2-enoyl]piperidin-3-yl}-1H-pyrazole-4-carboxamide], the 50% inhibitory concentration (IC50) in experiment [1] stood at 0.0014 µM; on human EGFR kinase domain, 0.381 µM.
